{"source": "patent US20240277861A1", "about": "“ANTI-HEPATITIS B VIRUS AGENT TARGETING HOST FACTOR LIPG” (PUROTECH BIO, INC., priority 2021, published 2024)", "molecules": {"B1": {"name": "LIPG (500 aa, MW: 56.8 kDa) (protein)", "chain": "SPVPFGPEGRLEDKLHKPKATQTEVKPSVRFNLRTSKDPEHEGCYLSVGHSQPLEDCSFNMTAKTFFIIHGWTMSGIFENWLHKLVSALHTREKDANVVVVDWLPLAHQLYTDAVNNTRVVGHSIARMLDWLQEKDDFSLGNVHLIGYSLGAHVAGYAGNFVKGTVGRITGLDPAGPMFEGADIHKRLSPDDADFVDVLHTYTRSFGLSIGIQMPVGHIDIYPNGGDFQPGCGLNDVLGSIAYGTITEVVKCEHERAVHLFVDSLVNQDKPSFAFQCTDSNRFKKGICLSCRKNRCNSIGYNAKKMRNKRNSKMYLKTRAGMPFRVYHYQMKIHVFSYKNMGEIEPTFYVTLYGTNADSQTLPLEIVERIEQNATNTFLVYTEEDLGDLLKIQLTWEGASQSWYNLWKEFRSYLSQPRNPGRELNIRRIRVKSGETQRKLTFCTEDPENTSISPGRELWFRKCRDGWRMKNETSPTVELP"}}, "key": {"[1]": {"assay_type": "physicochemical", "from_the_text": "Therefore, peptides designed by reducing the number of amino acid residues in these two peptides to 8 (LIPH4-23s and LIPH4-NTNBs) were next chemically synthesized."}, "[2]": {"system": "HBV", "experiment": "Anti-HBV activities of LIPG-binding peptides in HepG2-NTCP-C4 cells (plasmid transfection)", "assay_type": "cell-based", "method": "(§1) SMI TEST™ M EX-R&D (Medical & Biological Laboratories) was used to extract DNA from the samples. The extracted DNA was used as a template for quantitative PCR of HBV-DNA. For cccDNA detection, the extracted DNA was treated with T5 exonuclease (New England Biolabs), and the resulting DNA was used as a template for quantitative PCR. The T5 exonuclease treatment was performed at 37° C. for 30 minutes, and the DNase was later inactivated by heating at 80° C. for 15 minutes. The following primer set was used for detection.\nCells were infected with HBV derived from HepG2.2.15 at 20,000 genome equivalents/cell, and plasmids carrying different peptides were transfected individually into the cells 12 to 15 days post infection using Lipofectamine 3000. Samples were collected 3 to 5 days after transfection for evaluation of HBV-DNA, cccDNA, pgRNA, and the like.\nFor the clones positive in the pull-down experiment against full-length LIPG, the anti-HBV activities of the LIPG peptides were evaluated in HepG2-NTCP-C4 cells (FIG. 17). A secretion signal is added to a plasmid carrying each peptide. Therefore, the peptides are expected to be secreted from cells transfected with the plasmids and to bind to LIPG in the extracellular environment. […] Moreover, the copy number of cccDNA was reduced by almost all the clones."}, "[3]": {"system": "HBV", "experiment": "Anti-HBV activities of LIPG-binding peptides in PXB cells", "assay_type": "cell-based", "details": "HBV-infected PXB cells", "method": "An infection source medium was prepared by adding the HBV-infected chimeric mouse serum (PhoenixBio), DMSO, and a PEG 8000 solution to the PXB cell culture medium (PhoenixBio) at final concentrations of 5 genome equivalents/cell, 2%, and 4%, respectively. Various synthesized peptides were diluted to different concentrations in this medium, and the resulting media were added individually to PXB cells (PhoenixBio). After the cells were left to stand in a 5% CO2 incubator at 37° C. for 20 to 28 hours, the medium was removed and the wells were washed once with PBS(−). DMSO and one of the various synthesized peptides were added to the PXB cell culture medium at a final concentration of 2% and different concentrations, respectively, and the resulting media were added individually to the PXB cells to perform medium exchange. This medium exchange was performed at 1, 5, and 9 days post infection and samples were collected at 14 days post infection.\nas §1\nPXB cells, fresh human liver cells isolated from PXB mice (human hepatocyte chimeric mice), are human liver cells that maintain human liver functions at high levels and allow persistent infection with hepatitis B virus (HBV). Therefore, PXB cells were used to evaluate the anti-HBV activities of LIPG-binding peptides. LIPG-binding peptides were chemically synthesized because they were added extracellularly (Eurofins Genomics K.K.). Clones that had shown excellent results in the studies of Examples 10 and 1 (KIgk-LIPH4-23, KIgk-LIPH4-74, KIgk-LIPH4-15, KIgk-L1l 14-2. KIgk-LIPH14-14. KIgk-LIPH4-87) were selected for chemical synthesis of the peptides. […] Therefore, LIPH4-NTNA and LIPH4-NTNB, which share a common sequence with netrins and consist of 16 amino acids, were also chemically synthesized. The chemically synthesized peptides were dissolved in DMSO for use in HBV assays in PXB cells.\nNext, the anti-HBV activity of full-length Netrin-1 was examined in PXB cells. A full-length human recombinant Netrin-1 protein consisting of 604 amino acid residues (molecular weight: 67.5 kDa, SEQ ID NO: 28) was purchased from R&D Systems. United States. A shRNA with the sequence […]ctcgagc[…] TTTTTTG (single underline: terminal sequences for cloning, lowercase letters: hairpin loop sequence) (SEQ ID NO: 64) was used to knock down the Netrin-1 gene."}, "[4]": {"biological_target": "T1, full-length form of LIPG (500 amino acids) (Homo sapiens, UniProt Q9Y5X9)", "T1 construct": "A pull-down assay was performed on the full-length form of LIPG (500 amino acids); made in house", "T1 sequence (Q9Y5X9 21-500)": "B1 chain", "experiment": "Pull-down assay of LIPH4 peptides against full-length LIPG", "assay_type": "binding", "details": "culture supernatant of transfected 293T cells, compared with no bait", "method": "Human embryonic kidney 293T cells were cultured in DMEM (1.0 g/l glucose) with L-Gln and Sodium Pyruvate, liquid (Nacalai) supplemented with 10% FCS ([…]). Plating was performed in a 1:2 ratio on 6 cm dishes 24 hours before transfection. Lipofectamine 2000 in a volume of 20 μl was added to 500 μl of Opti-MEM 1 and allowed to stand for 5 minutes at room temperature, and the resulting mixture was gently added to a 6 cm dish containing a mixture of 500 μl of Opti-MEM 1 and 8 μg of a plasmid DNA. The resulting mixture was allowed to stand for 20 minutes at room temperature, and then added to a 6 cm dish containing 293T cells, and the cells were cultured at 37° C. in 5% CO2 for 4 to 6 day.\nResin (Streptavidin MagneSphere Paramagnetic Particles) (Promega) was washed using the MagneSphere Technology Magnetic Separation Stand (tweleve-position). The resin in a volume of 40 μl was added to each 1.5 ml tube, and after removal of the solution, washed three times with 1 ml of PBS. The resin was transferred to new tubes and mixed with 0.5 nmol (109 μl) of LIPG-BioFLAGHis or with 109 μl of PBS as a no bait control, and the resulting mixtures were agitated at 4° C. for 1 hour by rotation on a mini-disk rotor (BIO CRAFT) to allow binding. After removal of the solution, the resin was washed three times with 1 ml of TBST (containing 0.05% Tween 20). The resin was transferred to new tubes, blocked with 1 ml of ELISA BSA buffer (TBS, 0.05%, Tween 20, 1% BSA. Nacalai Tesque, Inc.) at 4° C. for 1 hour, and then washed three times with 1 ml of ELISA BSA buffer. The resin was transferred to new tubes, and 1000 μl of the culture supernatant containing expressed KIgk-LIPH4 was mixed with […] of the resin treated with LIPG-BioFLAGHis or without the bait, and the resulting mixtures were agitated at 4° C. for 1 hour and 30 minutes by rotation on a mini-disk rotor (BIO CRAFT) to allow binding. After removal of the solution, the resin was washed three times with […] of TBST (Tween 20, 0.1%), and the recovered resin was used for Western blotting.\nEach resin was mixed with water and LDS sample buffer (4×), 0.2 mM DTT, heated at 70° C. for 10 minutes, and then subjected to SDS-PAGE. SDS-PAGE was performed using 4-12% Bis-Tris gel and NuPAGE MES-SDS electrophoresis buffer (Invitrogen) at 200 V and 400 mA for 35 minutes. After electrophoresis, transfer was performed using Mini Format, 0.2-μm PVDF, Single-application (BIO-RAD) Trans-Blot Turbo. The membrane was blocked with a Blocking One Buffer: TBST (1:9) solution and reacted with an anti-Flag-HRP (Sigma: A8592) diluted 2:3000 in a Blocking One Buffer: TBST (1:9) solution. Detection was performed using ECL (Enhanced ChemiLuminescence) on a ChemiDoc (BIO-RAD).\nA pull-down assay was performed on the full-length form of LIPG (500 amino acids) with LIPH4 peptides (FIG. 16)."}, "[5]": {"biological_target": "T2, N4BP1 (NEDD4 Binding Protein 1)", "T2 chain": "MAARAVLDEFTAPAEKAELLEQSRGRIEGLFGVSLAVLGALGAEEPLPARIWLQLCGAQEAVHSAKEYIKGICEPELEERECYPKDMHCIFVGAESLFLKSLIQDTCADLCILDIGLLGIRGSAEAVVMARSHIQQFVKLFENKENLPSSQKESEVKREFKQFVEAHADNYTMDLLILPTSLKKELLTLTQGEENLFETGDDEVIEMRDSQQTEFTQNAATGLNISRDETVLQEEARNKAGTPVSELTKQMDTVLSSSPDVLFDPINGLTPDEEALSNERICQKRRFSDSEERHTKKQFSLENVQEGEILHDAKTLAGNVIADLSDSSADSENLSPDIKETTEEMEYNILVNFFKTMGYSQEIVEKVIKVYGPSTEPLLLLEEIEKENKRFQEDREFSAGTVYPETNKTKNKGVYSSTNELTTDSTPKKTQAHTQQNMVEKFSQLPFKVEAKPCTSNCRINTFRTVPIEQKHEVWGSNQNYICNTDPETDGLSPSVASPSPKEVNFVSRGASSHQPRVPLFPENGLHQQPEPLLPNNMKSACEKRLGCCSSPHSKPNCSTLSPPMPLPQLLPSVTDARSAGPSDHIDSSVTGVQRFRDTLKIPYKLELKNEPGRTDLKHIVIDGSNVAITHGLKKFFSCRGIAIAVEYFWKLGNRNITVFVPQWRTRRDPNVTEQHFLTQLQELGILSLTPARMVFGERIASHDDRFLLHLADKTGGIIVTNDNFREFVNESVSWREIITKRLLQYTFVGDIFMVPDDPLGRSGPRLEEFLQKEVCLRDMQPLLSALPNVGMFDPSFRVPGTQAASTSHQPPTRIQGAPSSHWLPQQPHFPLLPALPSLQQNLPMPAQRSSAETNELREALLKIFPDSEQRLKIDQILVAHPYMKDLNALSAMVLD"}}, "note": "Residues, ends and D or L forms follow the SMILES beside them."}
{"molecule": "CC(C)C[C@H](N)C(=O)N[C@@H](CC(N)=O)C(=O)N[C@@H](CS)C(=O)N[C@@H](CCCNC(=N)N)C(=O)N[C@@H](CC(=O)O)C(=O)N[C@@H](CC(N)=O)C(=O)N[C@H](C(=O)N[C@@H](CCCNC(=N)N)C(=O)O)[C@@H](C)O", "note": "[LIPH4-23s] (H-LNCRDNTR-OH; N-terminus and C-terminus assumed)", "values": [{"measurement": "solubility in PBS", "setting": "[1]", "result": "soluble in PBS (water soluble)"}]}
{"molecule": "C[C@H](NC(=O)[C@@H](NC(=O)[C@H](CC(N)=O)NC(=O)[C@H](Cc1c[nH]cn1)NC(=O)[C@H](CCCNC(=N)N)NC(=O)[C@H](CS)NC(=O)[C@@H](N)CC(N)=O)[C@@H](C)O)C(=O)NCC(=O)O", "note": "[LIPH4-NTNBs] (H-NCRHNTAG-OH; N-terminus and C-terminus assumed)", "values": [{"measurement": "solubility in PBS", "setting": "[1]", "result": "soluble in PBS (water soluble)"}]}
{"molecule": "LNCRDNTRPVMSAMTC (LIPH4-23)", "values": [{"measurement": "anti-HBV activity", "setting": "[2]", "result": "remarkable anti-HBV activity"}, {"measurement": "anti-HBV activity (effect to reduce HBV DNA and cccDNA copy numbers)", "setting": "[3]", "result": "high anti-HBV activity"}]}
{"molecule": "LNCRDNTRPVMSAMTC [KIgk-LIPH4-23]", "values": [{"measurement": "binding to LIPG in pull-down assay", "setting": "[4]", "result": "positive"}, {"measurement": "copy number of HBV-DNA", "setting": "[2]; vs control", "result": "reduced the copy number of HBV-DNA to near zero"}]}
{"molecule": "B1", "values": [{"measurement": "degradation of a 1203-base HBV L protein RNA by N4BP1 (RNase activity), agarose gel", "setting": "[5]", "result": "the degradation of the RNA was suppressed in the presence of LIPG by binding of LIPG to N4BP1"}]}
